In patent US4764525A, “N-1H-tetrazol-5-ylbenzamides having use as antiallergy and antiinflammatory agents” (Warner-Lambert Company, priority 1987, dated 1988) one finds inhibition data, which are given here for 4 compounds.

The term inhibition denotes the percentage by which the read-out fell short of the control. Lower therefore signals a weak effect.

Structures are written as SMILES.

For the assay, the system named is human basophils. Briefly: HHB assay: inhibition of histamine release from human basophils. The assay is classed as cell-based. Particulars: Anti-IgE stimulus, tested at 33 μM. An excerpt: The HHB assay quantitates active histamine release and its inhibition by drugs, from basophils of human blood. Thus, the assay provides evaluation of the compounds of formula I for treating the conditions or diseases as is the present invention. As described herein the assay includes modifications of the method described by R. P. Siroganian in "An Automated Continuous-Flow System for the Extraction and Fluorometric Analysis of Histamine," Anal. Biochem., 57, 383-394 (1974).
Seventy ml of blood are drawn from allergic donors (chosen on the basis of adequate histamine induced by a challenge), using standard venipuncture methods, into 10 ml Vacutainers with 0.08 ml/tube 15% EDTA in water as anticoagulant. The blood samples are placed briefly on a rotary mixer. All glassware contacting the blood is siliconized. The blood is aliquoted into three plastic 50 ml centrifuge tubes and the volume is noted. Hespan (hydroxy ethyl starch), 0.5 ml per 1.0 ml of blood, is added. The tubes are inverted several times to mix and are left undisturbed at room temperature until a sharp separation is observed between the settled red cells and the leukocyte and platelet-rich plasma. This usually occurs within 35-45 minutes.
The plasma fraction is pipetted off and placed into two clean plastic 50 ml centrifuge tubes. The tubes are centrifuged for 12 minutes at 4° C. in a a 100 ml volumetric flask and 0.5 ml DMSO is added. […] If the compound is in solution, distilled water is used to bring it up to 100 ml total volume. If the drug is not in solution, 0.2 ml 1N NaOH (or HCl) is added, and then distilled water is added to yield 100 ml total solution. Five ml of the stock solution is diluted (1:2) with 5 ml of two times concentrated HACM buffer to yield the stock working concentration of 150 μM. When added to the cells and stimulus, a final test concentration of 100 μM drug results (400 μl drug, 100 μcells and 100 μchallenge agent or vehicle). Further dilutions are made with HACM buffer for 33, 10, 3.3, 1.0 μM, etc.
Short ragweed and house dust extracts (Greer Laboratories, Inc.) are supplied as aqueous extracts in stock concentrations of 40,000 and 10,000 protein nitrogen units per milliliter (PNU/ml), respectively. Aqueous solutions of anti-IgE antisera (rabbit-raised antibody) are purchased from Dako via Accurate Chemicals. The tripeptide f-met-leu-phe (fmlp) from Vega Biochemicals is used. The aqueous solutions of ragweed, house dust, and anti-IgE are diluted 1:2 with two times concentrated HACM and then further diluted with HACM to yield final stock concentrations of 6000 PNU/ml for ragweed and house dust, and a 1:50 dilution for the anti-IgE antisera. […]

Consider `COc1cc(OC(C)C)c(C(=O)Nc2nnn[nH]2)cc1Br` [Example 3, 5-Bromo-4-methoxy-2-(1-methylethoxy)-N-1H-tetrazol-5-ylbenzamide], for which at 33 µM the inhibition was 28%.
`COc1ccc(C(=O)Nc2nnn[nH]2)c(OC(C)C)c1I` [Example 4, 3-Iodo-4-methoxy-2-(1-methylethoxy)-N-1H-tetrazol-5-ylbenzamide]: at 33 µM the inhibition was 73%.
The value for `COc1ccc(C(=O)Nc2nnn[nH]2)c(OC(C)C)c1` [Example 1, 4-Methoxy-2-(1-methylethoxy)-N-1H-tetrazol-5-ylbenzamide] was 41%.
With `COc1ccc(C(=O)Nc2nnn[nH]2)c(OC(C)C)c1Br` [Example 2, 3-Bromo-4-methoxy-2-(1-methylethoxy)-N-1H-tetrazol-5-ylbenzamide], the inhibition at 33 µM turned out to be 60%.
